In paper PMC7600127, “Peptide-Based TNF-α-Binding Decoy Therapy Mitigates Lipopolysaccharide-Induced Liver Injury in Mice” (Pharmaceuticals, 2020):

Tested on: LPS-induced liver injury
Assay: Exogenous TNF-α counteraction of SEM18 in LPS-treated mice
Format: in vivo, Balb/cJ mice
Details: LSEM + TNF-α group vs LSEM group; TNF-α 0.3 mg/kg then 3 x 0.15 mg/kg i.p. with SEM18; 24 h after LPS 15 mg/kg; n = 5
Protocol: Exogenous TNF-α (recombinant mouse TNF-α; R&D Systems, Minneapolis, MN, USA) was used to confirm whether the therapeutic effects of SEM18 peptide were mediated by decreasing TNF-α binding to TNFR1. A set of mice (n = 5, designated as the LSEM + TNF-α group) were treated with LPS as described earlier. Two hours after LPS, exogenous TNF-α (0.3 mg/kg i.p.) was administered, followed by SEM18 (0.3 mg/kg, i.p.). Supplemental doses of exogenous TNF-α administration (0.15 mg/kg, i.p.) and SEM18 (0.15 mg/kg, i.p.) were administered every 2 h three times. These mice were closely monitored for 24 h (starting from LPS administration). All mice survived the experiment. […]
Figure 7 Exogenous tumor necrosis factor (TNF)-α counteracts the effects of SEM18 peptide. (A) Binding of TNF-α to TNF receptor 1, as measured at 24 h after lipopolysaccharide (LPS) administration using immunofluorescence staining of proximity ligation assay (PLA). (B) Plasma concentrations of aspartate aminotransferase (AST) and alanine aminotransferase (ALT) and the wet/dry (W/D) weight ratio of the liver tissues, as measured at 24 h after LPS administration. […] For apoptosis analysis, liver tissues were assayed using the terminal deoxynucleotidyl transferase dUTP nick-end labeling (TUNEL) method and the mean TUNEL-positive cell in liver tissues (per 0.25 mm^2) was calculated, as measured at 24 h after LPS administration. […]

recombinant mouse TNF-α [exogenous TNF-α]
effect of exogenous TNF-α on the therapeutic effects of SEM18 peptide: counteracting the therapeutic effects of SEM18 peptide
